Results on 24 compounds are retold here after US6147097A, “Imidazole derivatives as anti-HIV agents” (Shionogi & Co., Ltd., priority 1994, dated 2000).

Data set [1] can be described thus: cytotoxicity in MT-4 cells (MTT, culture medium in place of HIV). Format: cell-based. The conditions noted are these: human. As to the method:
(§1) The anti-HIV activity of each of the compounds produced in Examples was assayed by the following procedures. (1) Human T cell line MOLT-4 clone 8 persistently infected by HIV (HTLV-IIIB strain) was cultured in an RPMI-1640 medium supplemented with 10% fetal calf serum, the culture supernatant was filtered, and the titer of virus was determined; the culture supernatant was stored at -80° C. On the other hand, the test compound was diluted with the above culture medium to predetermined concentrations and distributed in 50 μl aliquots into a 96-well microtiter plate. Then, d suspension of MT-4 cells was added in 100 μl aliquots (3.5×10^4 cells per well) and then the above HIV-containing supernatant diluted with the above culture medium was added, 50 μl (60 pfu (plaque forming units)) per well. (2) The plate was incubated in a CO2 incubator at 37° C. for 5 days. Then, 30 μl/well of 3-(4,5-dimethyl thiazol-2-yl)-2,5-diphenyltetrazolium bromide (MTT) (5 mg/ml PBS) was added and the incubation was further continued for 1 hour. The surviving cells reducing MTT yield precipitation of formazan. Therefore, 150 μl portions of the culture supernatant were removed from all wells and, instead, 150 μl of a solution (10% Triton X-100 and 0.4% (v/v) HCl-added isopropyl alcohol) was added. The plate was shaken on a plate mixer to dissolve the formazan. The OD of formazan was measured with a microreader at 560 nm arid 690 nm (reference wavelength) and the result was compared with that of control.
The cytotoxicity of each of the compounds produced in Examples was assayed. In place of the HIV-containing supernatant (the virus suspension) in (1) in Test Example 1, 50 μl of the culture medium was added to each well, and the cytotoxicity was determined in the same manner as that for (2) in Test Example 1.

Data set [2] has as its target T1, purified recombinant HIV-1 reverse transcriptase (Human immunodeficiency virus type 1 group M subtype B, UniProt P04585).
T1 construct: purified recombinant HIV-1 reverse transcriptase; made in house; host or cells: Escherichia coli
The data set can be described thus: reverse transcriptase inhibition, poly(rA)/(dT) template primer, [3H]dTTP uptake. Type of data set: biochemical. As to the method: The reverse transcriptase activity of each of the compounds synthesized in Examples was assayed by the following procedures.
Using the purified recombinant HIV-1 reverse transcriptase RT, E.C. 2.7.7.49) obtained by expression in Escherichia Coli, a 96-well plate assay system was established for assaying a large number of samples. The RT inhibitory activity was determined as follows. To 11 μl of a solution of the test inhibitor in water or MSO was added 100 μl of a reaction mixture (0.1 unit/100 μl RT, 50 mM Tris-HCl pH 8.3, 150 mM KCl, 10 mM MgCl2, 3 mM dithiothreitol, 0.1% Nonidet P-40, 10 μg/ml. poly(rA) and 10 μg/ml (dT)12-1.8 as template and primer, and 4 μM dTTP, 1 μCi/100 μl [^3 H]dTTP as substrate) and the mixture was incubated at 37° C. for 1 hour and, then, immediately cooled on ice. Using a cell harvester, the reaction mixture was transferred to a DEAE-filter mat (LKB-Pharmacia). Then, using the wash line of the cell harvester, the cells were washed twice with 5% Na2 HPO4 /H2 O and once with water and dried at 95° C. for 15 minutes. […] The inhibitory activity was expressed in percent inhibition relative to the uptake on water or DMSO control.

For a further data set, the system named is HIV (HTLV-IIIB strain). The data set can be described thus: microbe, parasite or virus in culture. Type of data set: cell-based. The conditions noted are these: Human immunodeficiency virus 1, IIIB, MT4, 120 h. As for the experimental part:
as §1, with “(1) Human T cell line MOLT-4 clone 8 persistently infected by HIV (HTLV-IIIB strain) was cultured in an RPMI-1640 medium supplemented with 10% fetal calf serum, the culture supernatant was filtered, and the titer of virus was determined; the culture supernatant was stored at -80° C.” left out, “formazan.” for “formazan. The OD of formazan was measured with a microreader at 560 nm arid 690 nm (reference wavelength) and the result was compared with that of control.”

Where [3] appears, read: MT-4 cells, no virus, 37° C., 5 days, MTT, Table 3, read-out: CC50.
Setting [4] is: MT-4 cells, 60 pfu HIV per well, 37° C., 5 days, MTT, Tables 1 and 2, read-out: EC50.

Values after ≈ are worked out from the molar mass of the structure shown. Structures can show the parent of a compound that is named as a salt. Where two headings read alike, the source gives them in different places.

For the compound `CCCCCCCCCCCCn1c(CO)nc(C(C)C)c1Sc1cc(Cl)cc(Cl)c1` [Compound I-18, [5-(3,5-dichlorophenylthio)-1-dodecyl-4-isopropyl-1H-imidazol-2-yl]methanol], the cytotoxic concentration (CC50) at 120 h in data set [1] (setting [3]) lay within 10 to 100 µg/mL (≈ 20.6 to 206 µM). The IC50 in data set [2] is greater than 206 µM. With `CC(C)c1nc(CO)n(CC(=O)c2ccccc2)c1Sc1cc(Cl)cc(Cl)c1` [Compound I-31, [1-benzoylmethyl-5-(3,5-dichlorophenylthio)-4-isopropyl-1H-imidazol-2-yl]methanol], the half-maximal effective concentration (EC50) in the data set on HIV (HTLV-IIIB strain) (setting [4]) stood at 0.06 µg/mL (≈ 0.138 µM). Moreover, the CC50 at 120 h in data set [1] (setting [3]) stood at 100 µg/mL (≈ 230 µM). Turning to `CC(C)c1nc(COC(N)=O)n(Cc2ccccc2)c1Sc1cccc(Cl)c1` [Compound I-46, 1-benzyl-2-carbamoyloxymethyl-5-(3-chlorophenylthio)-4-isopropyl-1H-imidazole], the CC50 at 120 h in data set [1] (setting [3]) was in the range of 12.5 to 25 µg/mL (≈ 30.1 to 60.1 µM). The IC50 in data set [2] is 1.92 µM. Compound `CCn1c(COC(N)=O)nc(C(C)C)c1Sc1cccc([N+](=O)[O-])c1` [Compound I-49, 2-carbamoyloxymethyl-1-ethyl-4-isopropyl-5-(3-nitrophenylthio)-1H-imidazole] had an EC50 in the data set on HIV (HTLV-IIIB strain) of 0.004 to 0.008 µg/mL (≈ 0.011 to 0.022 µM). The CC50 at 120 h in data set [1] (setting [3]) turned out to be 25 µg/mL (≈ 68.6 µM). Turning to `CCCn1c(COC(N)=O)nc(C(C)C)c1Sc1cccc([N+](=O)[O-])c1` [Compound I-50, 2-carbamoyloxymethyl-4-isopropyl-5-(3-nitrophenylthio)-1-n-propyl-1H-imidazole], in the data set with HIV (HTLV-IIIB strain) (setting [4]), the EC50 came to 0.008 µg/mL (≈ 0.0211 µM). Besides, the CC50 at 120 h in data set [1] (setting [3]) is greater than 100 µg/mL. Consider `CC(=O)OCCOCc1nc(Sc2cc(Cl)cc(Cl)c2)c(C(C)C)n1C` [Compound I-64, 2-[4-(3,5-dichlorophenylthio)-5-isopropyl-1-methyl-1H-imidazol-2-yl]methoxy} ethyl acetate], for which, in data set [1] (setting [3]), the CC50 at 120 h lay in the range of 12.5 to 25 µg/mL. In addition, the IC50 in data set [2] was greater than 240 µM. The like results for `CC(C)c1c(Sc2cc(Cl)cc(Cl)c2)nc(COCCOC(N)=O)n1C` [Compound I-65] were, in that order, 12.5 to 25 µg/mL (≈ 29.9 to 59.8 µM) and greater than 239 µM. For `CC(C)c1nc(CN)n(CF)c1Sc1cc(Cl)cc(Cl)c1` [Compound I-77, 2-aminomethyl-5-(3,5-dichlorophenylthio)-1-fluoromethyl-4-isopropylimidazole], the CC50 at 120 h in data set [1] (setting [3]) was 10 µg/mL (≈ 28.7 µM). Also, the IC50 in data set [2] is 3.73 µM. Take `CC(=O)NCc1nc(C(C)C)c(Sc2cc(Cl)cc(Cl)c2)n1C` [Compound I-83]: the CC50 at 120 h in data set [1] (setting [3]) was in the range of 6.3 to 12.5 µg/mL (≈ 16.9 to 33.6 µM). The IC50 in data set [2] was 218 µM. As for `Cc1ccc(S(=O)(=O)NCc2nc(C(C)C)c(Sc3cc(Cl)cc(Cl)c3)n2C)cc1` [Compound I-88, 5-(3,5-dichlorophenylthio)-4-isopropyl-1-methyl-2-p-toluenesulfonylaminomethyl-1H-imidazole], the CC50 at 120 h in data set [1] (setting [3]) was in the range of 1 to 10 µg/mL (≈ 2.06 to 20.6 µM). Moreover, the IC50 in data set [2] was greater than 206 µM.

The compound `CC(C)c1nc(COC(N)=O)n(Cc2ccccn2)c1Sc1cc(Cl)cc(Cl)c1` [Compound I-93] had a half-maximal effective concentration (EC50) with HIV (HTLV-IIIB strain) of 0.0005 to 0.001 µg/mL (≈ 0.00111 to 0.00222 µM). The CC50 at 120 h in data set [1] (setting [3]) was 12.5 µg/mL (≈ 27.7 µM). As to `Cc1cc(C)cc(S(=O)(=O)c2c(C(C)C)nc(CO)n2C)c1` [Compound I-107, [5-(3,5-dimethylphenylsulfonyl)-4-isopropyl-1-methyl-1H-imidazol-2-yl]methanol], the CC50 at 120 h in data set [1] (setting [3]) is greater than 100 µg/mL. In data set [2], the IC50 was 194 µM. On to `CC(C)c1nc(CO)n(C)c1[S+]([O-])c1cc(Cl)cc(Cl)c1` (stereo not drawn) [Compound I-108, [5-(3,5-dichlorophenylsulfinyl)-4-isopropyl-1-methyl-1H-imidazol-2yl]methanol], for which the 50% effective concentration (EC50) with HIV (HTLV-IIIB strain) (setting [4]) was found to be 1 µg/mL (≈ 2.88 µM). Besides, in data set [1] (setting [3]), the CC50 at 120 h fell in the range of 10 to 100 µg/mL (≈ 28.8 to 288 µM). On to `CC(C)c1nc(CO)n(C)c1S(=O)(=O)c1cc(Cl)cc(Cl)c1` [Compound I-109, [5-(3,5-dichlorophenylsulfonyl)-4-isopropyl-1-methyl-1H-imidazol-2-yl]methanol], for which the 50% effective concentration (EC50) in the data set on HIV (HTLV-IIIB strain) (setting [4]) was found to be 0.5 µg/mL (≈ 1.38 µM). The CC50 at 120 h in data set [1] (setting [3]) is greater than 100 µg/mL. The like results for `CC(C)c1nc(CN)n(C)c1[S+]([O-])c1cc(Cl)cc(Cl)c1` (stereo not drawn) [Compound I-110, 2-aminomethyl-5-(3,5-dichlorophenylsulfinyl)-4-isopropyl-1-methyl-1H-imidazole] were, in that order, 10 µg/mL (≈ 28.9 µM) and 10 to 100 µg/mL (≈ 28.9 to 289 µM). Consider `CC(C)c1nc(CN)n(C)c1S(=O)(=O)c1cc(Cl)cc(Cl)c1` [Compound I-111, 2-aminomethyl-5-(3,5-dichlorophenylsulfonyl)-4-isopropyl-1-methyl-1H-imidazole], for which the CC50 at 120 h in data set [1] (setting [3]) lay in the range of 1 to 10 µg/mL (≈ 2.76 to 27.6 µM). Consider `CC(C)c1nc(CNC(=O)C(F)(F)F)n(C)c1[S+]([O-])c1cc(Cl)cc(Cl)c1` (stereo not drawn) [Compound I-112, 5-(3,5-dichlorophenylsulfinyl)-4-isopropyl-1-methyl-2-trifluoroacetylaminomethyl-1H-imidazole], for which the EC50 in the data set on HIV (HTLV-IIIB strain) (setting [4]) was greater than 100 µg/mL. Moreover, the CC50 at 120 h in data set [1] (setting [3]) was greater than 100 µg/mL. `CC(C)c1nc(COC(N)=O)n(C)c1[S+]([O-])c1cc(Cl)cc(Cl)c1` (stereo not drawn) [Compound I-115, 2-carbamoyloxymethyl-5-(3,5-dichlorophenylsulfinyl)-4-isopropyl-1-methyl-1H-imidazole]: the CC50 at 120 h in data set [1] (setting [3]) lay within 10 to 100 µg/mL (≈ 25.6 to 256 µM).

`CC(C)c1nc(CO)n(Cc2ccc(C(C)(C)C)cc2)c1Sc1cc(Cl)cc(Cl)c1` [Compound I-116, 1-(p-t-butylbenzyl)-5-(3,5-dichlorophenylthio)-2-hydroxymethyl-4-isopropyl-1H-imidazole hydrochloride] came in with a CC50 at 120 h in data set [1] (mt-4 cells) of 25 µg/mL. The half-inhibitory concentration (IC50) in data set [2] is greater than 200 µM. `CC(=O)Nc1ccc(Cn2c(CO)nc(C(C)C)c2Sc2cc(Cl)cc(Cl)c2)cc1` [Compound I-117, 1-(p-N-acetylaminobenzyl)-5-(3,5-dichlorophenylthio)-2-hydroxymethyl-4-isopropyl-1H-imidazole] had a CC50 at 120 h in data set [1] (mt-4 cells) of 50 µg/mL (≈ 108 µM). Moreover, in data set [2], the IC50 is 8.18 µM.

`CC(C)c1nc(CO)n(Cc2cccc(N)c2)c1Sc1cc(Cl)cc(Cl)c1` [Compound I-118, 1-(m-aminobenzyl)-5-(3,5-dichlorophenylthio)-2-hydroxymethyl-4-isopropyl-1H-imidazole] came in with a CC50 at 120 h in data set [1] (mt-4 cells) of 12.5 to 25 µg/mL (≈ 29.6 to 59.2 µM). In addition, in data set [2], the IC50 is 2.13 µM. Regarding `CC(C)c1nc(COC(N)=O)n(Cc2ccc[nH]c2=O)c1Sc1cc(Cl)cc(Cl)c1` [Compound I-132, 2-carbamoyloxymethyl-5-(3,5-dichlorophenylthio)-1-(2-oxo-1,2-dihydro-pyridin-3-yl)methyl-4-isopropyl-1H-imidazole], in data set [1] (mt-4 cells), the CC50 at 120 h was in the range of 12.5 to 25 µg/mL (≈ 26.7 to 53.5 µM). For the same compound, the IC50 in data set [2] was 1.39 µM. For `CC(C)c1nc(CCOC(N)=O)n(Cc2ccccc2N)c1Sc1cc(Cl)cc(Cl)c1` [Compound I-144, l-(o-aminobenzyl)-2-(2-carbamoyloxyethyl)-5-(3,5-dichlorophenylthio)-4-isopropyl-1H-imidazole] the same measures were 6.3 to 12.5 µg/mL (≈ 13.1 to 26.1 µM) and greater than 209 µM. Turning to “[5-(3,5-dichlorophenylthio)-1-(1-fluoroethyl)-4-isopropyl-1H-imidazol-2-yl]methanol [Compound I-35]”, in data set [2] (pH 8.3, 37° C., 1 hour, Tables 5 and 6), the “RT IC50” value turned out to be 0.69 µg/mL.
